Biological target: T1, human melanin-concentrating hormone one receptor (Homo sapiens, UniProt Q99705)
T1 construct: expressed in transfected cells; host or cells: CHO (CHO-K1) cells stably expressing an elkgal4-luc+ reporter gene
Assay: Functional antagonist assay of MCHR1 (elkgal4-luc+ luciferase reporter gene in CHO cells, inhibition of MCH EC80 response)
Assay type: cell-based
Settings: MCH1R-elkgal4-luc+ CHO cells, luciferase readout, read-out: MCHR1 pIC50 (converted)
Protocol: Chinese hamster ovary (CHO-K1) cells were obtained from the American Type Culture Collection (Rockville, Md.).
CHO cells, stably expressing an elkgal4-luc^+ reporter gene (host) were transfected by electroporation with the human melanin-concentrating hormone one receptor. A stable clone was selected using G418 for functional antagonist assays. MCH1R-elkgal4-luc^+ CHO cells were propagated in complete medium (DMEM/F12, 5% FBS, 2 mM I-glutamine) in T225 flasks. Forty-eight hours prior to assay, cells were harvested with 2 mL of 0.05% trypsin, washed with complete medium and plated at a concentration of 10,000 cells/well in complete medium in black 96-well plates. Eighteen hours prior to the assay, the medium was removed from the cells by aspiration and replaced with 90 μl/well of serum-free DMEM/F12. […] Plates were sealed and subjected to dark adaptation at room temperature for 10 minutes before luciferase activity was quantitated on a TopCount™ microplate scintillation counter (Packard) using 3 seconds/well count time. The ability of the antagonist to inhibit the MCH EC80 response was quantified by non-linear regression analysis using a curve-fitting program based in Microsoft ExCel. Specificity of the MCHR1 response was determined using the same protocol by measuring the ability of said antagonists to inhibit an EC80 thrombin response (endogenous) in the host cells.

T1 sequence (Q99705 whole entry, the tested form may be a part): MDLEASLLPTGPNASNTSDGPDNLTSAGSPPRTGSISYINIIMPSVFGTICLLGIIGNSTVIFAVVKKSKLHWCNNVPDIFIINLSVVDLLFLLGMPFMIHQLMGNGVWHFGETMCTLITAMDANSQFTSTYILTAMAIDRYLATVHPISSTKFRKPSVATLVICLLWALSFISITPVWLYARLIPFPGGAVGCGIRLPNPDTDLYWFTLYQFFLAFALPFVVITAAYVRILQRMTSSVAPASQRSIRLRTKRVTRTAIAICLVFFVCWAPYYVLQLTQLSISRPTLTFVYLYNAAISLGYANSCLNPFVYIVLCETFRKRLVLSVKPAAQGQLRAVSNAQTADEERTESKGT

Row | IC50 | Structure (SMILES)
1 | 79.4 nM | COc1cc(-n2cnc3cc(-c4ccccc4)ccc3c2=O)ccc1OCCN1CCCCC1 [Example H1, 3-{3-methoxy-4-[2-(1-piperidinyl)ethoxy]phenyl}-7-phenyl-4(3H)-quinazolinone]
2 | 63.1 nM | COc1cc(-n2cnc3cc(-c4ccc(C(F)(F)F)cc4)ccc3c2=O)ccc1OCCN1CCCC1 [Example J1, 3-{3-methoxy-4-[2-(1-pyrrolidinyl)ethoxy]phenyl}-7-[4-(trifluoromethyl)phenyl]-4(3H)-quinazolinone]

From patent US7285557B2, “Pyrimidinones as melanin concentrating hormone receptor 1” (SmithKline Beecham P.L.C., priority 2001, dated 2007)
